Some test systems named below: MOLT-4 leukemia; HOP-62 NSCLC; NCI-H522 lung; HCT-116 colon; RXF 393 renal; CAKI-1 renal; 786-0 renal; SK-MEL-28 melanoma; OVCAR-4 ovarian.
Common to all, as to test: inhibition of tumour cell growth, NCI panel, 48 h

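Interpolation was linear, between the two tested concentrations surrounding the appropriate level; five concentrations were tested over 48 hours in 96-well plates. At the GI50, growth is halved. The concentration for full growth arrest is given as TGI.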

Turning to `CCCCN(CC)c1ncnc2ccc(Br)cc12`, the GI50 is 2.45 µM in the assay on MOLT-4 leukemia; 16.9 µM in the assay with HOP-62 NSCLC; 21 µM in the assay on NCI-H522 lung; 15.8 µM in the assay with HCT-116 colon; 8.45 µM in the assay with RXF 393 renal; 8.7 µM in the assay with CAKI-1 renal. The GI50 was 18.9 µM with 786-0 renal, 18.1 µM in the assay with SK-MEL-28 melanoma and 22.1 µM in the assay with OVCAR-4 ovarian. The TGI is over 100 µM in the assay on MOLT-4 leukemia; 34 µM with HOP-62 NSCLC; over 100 µM in the assay with NCI-H522 lung; 36.2 µM in the assay with HCT-116 colon; 24.7 µM with RXF 393 renal; 29 µM with CAKI-1 renal. Also, the TGI in the assay on 786-0 renal was 39.7 µM; with SK-MEL-28 melanoma it was 46.5 µM; in the assay with OVCAR-4 ovarian it was over 100 µM.
Take `Nc1ccc(C(=O)CC2(O)C(=O)Nc3c(Cl)cc(Cl)cc32)cc1` (centres undefined): the TGI with MOLT-4 leukemia, in the assay on HOP-62 NSCLC, in the assay with NCI-H522 lung, in the assay on HCT-116 colon, in the assay with RXF 393 renal and with 786-0 renal was over 100 µM each time. Also, the TGI in the assay with SK-MEL-28 melanoma and with OVCAR-4 ovarian was over 100 µM each time.
As for `COc1ccccc1NC(=O)C1=C(C)NC(C)=C(C(=O)Nc2ccccc2OC)C1c1ccc(N(C)C)cc1`, the TGI in the assay on MOLT-4 leukemia was determined as 64.5 µM; in the assay on HOP-62 NSCLC, 57.2 µM; in the assay on NCI-H522 lung it was 53.7 µM; in the assay with HCT-116 colon, 74.7 µM; in the assay with RXF 393 renal, 68.6 µM; in the assay on CAKI-1 renal it was 89.1 µM. Also, the values for the TGI in the assay on 786-0 renal, in the assay with SK-MEL-28 melanoma and in the assay with OVCAR-4 ovarian were over 100 µM, 58 µM and 91.2 µM, respectively.
As to `COc1cc(C2c3cc4c(cc3[C@@H](N(C)C)[C@H]3COC(=O)C23)OCO4)cc(OC)c1O` (some centres undefined), the TGI is over 100 µM in the assay with MOLT-4 leukemia; over 100 µM in the assay on HOP-62 NSCLC; 18.8 µM with NCI-H522 lung; over 100 µM with HCT-116 colon; over 100 µM in the assay with RXF 393 renal; 99 µM with CAKI-1 renal. The TGI in the assay on 786-0 renal, in the assay on SK-MEL-28 melanoma and in the assay on OVCAR-4 ovarian was over 100 µM in each case.
As to `COC(=O)C1Cc2c([nH]c3ccccc23)C(c2ccccc2O)N1Cc1ccccc1` (centres undefined), the TGI in the assay on MOLT-4 leukemia was over 46.4 µM; in the assay on HOP-62 NSCLC, over 63.5 µM; with NCI-H522 lung, over 31.6 µM; with HCT-116 colon, over 31.6 µM; in the assay on RXF 393 renal, 61.7 µM; in the assay on CAKI-1 renal, 34.5 µM. Further, the TGI with 786-0 renal is 31.2 µM; with SK-MEL-28 melanoma it was over 31.6 µM; in the assay with OVCAR-4 ovarian it was 33.6 µM.
For the compound `Cc1c(Cl)cccc1NC(=O)/C(Cl)=C(\Cl)C(=O)O`, the TGI with MOLT-4 leukemia was found to be 48.2 µM; with HOP-62 NSCLC, 78.5 µM; in the assay with NCI-H522 lung it was 7.19 µM; in the assay on HCT-116 colon, 27.4 µM; with RXF 393 renal, 36.9 µM; with CAKI-1 renal, 33.9 µM. The TGI with 786-0 renal was determined as 33.3 µM; in the assay on SK-MEL-28 melanoma, 35.4 µM; in the assay with OVCAR-4 ovarian, 31.6 µM.
In the case of `O=c1cc(-c2ccccn2)[nH]c2cc(F)ccc12`, the TGI in the assay with MOLT-4 leukemia, in the assay on HOP-62 NSCLC, with NCI-H522 lung, with HCT-116 colon, in the assay on RXF 393 renal and in the assay on 786-0 renal was over 100 µM throughout. The TGI in the assay with SK-MEL-28 melanoma and in the assay with OVCAR-4 ovarian was over 100 µM in each case.
Turning to `COc1c(Sc2ccccc2)cc(Sc2ccccc2)c2cccnc12`, the TGI in the assay with MOLT-4 leukemia was 48.1 µM; with HOP-62 NSCLC it was over 100 µM; in the assay with HCT-116 colon, over 100 µM; with RXF 393 renal, 51.5 µM; with CAKI-1 renal, 70.7 µM; with 786-0 renal it was 65.9 µM. The TGI with SK-MEL-28 melanoma was over 100 µM; in the assay with OVCAR-4 ovarian, 61.9 µM.
`CN1C(=O)C2C=CC1C1CCC2N(C)C1=O` (centres undefined): the TGI in the assay with MOLT-4 leukemia, with NCI-H522 lung, in the assay with HCT-116 colon, with RXF 393 renal, in the assay on CAKI-1 renal and in the assay with 786-0 renal was over 100 µM each time. Besides, the TGI in the assay with SK-MEL-28 melanoma and in the assay on OVCAR-4 ovarian was over 100 µM each time.
As for `COC(=O)c1ccc(C(=O)OC)c2nc3cc(C)ccc3nc12`, the TGI in the assay with MOLT-4 leukemia, with HOP-62 NSCLC, with CAKI-1 renal, in the assay with 786-0 renal, in the assay on SK-MEL-28 melanoma and in the assay with OVCAR-4 ovarian was over 100 µM throughout.
On to `Cc1c(C(=O)CC(=O)C(=O)Nc2cc(Cl)ccc2Cl)[n+](=O)c2ccccc2n1[O-]`, for which the TGI with MOLT-4 leukemia was 66.5 µM; in the assay on HOP-62 NSCLC, over 100 µM; in the assay on NCI-H522 lung it was 53.6 µM; with HCT-116 colon, over 100 µM; in the assay with RXF 393 renal it was over 100 µM; in the assay with CAKI-1 renal, over 100 µM. The TGI with 786-0 renal, in the assay on SK-MEL-28 melanoma and in the assay with OVCAR-4 ovarian was over 100 µM in each case.
In the case of `COC(=O)[C@H]1N[C@@H](C(=O)OC)C23CCC[C@H]2CC[C@]1(C(OC)OC)C3`, the TGI in the assay with MOLT-4 leukemia, with HOP-62 NSCLC, in the assay on NCI-H522 lung, in the assay with HCT-116 colon, in the assay on CAKI-1 renal and in the assay on 786-0 renal was over 100 µM each time. Besides, the TGI in the assay on SK-MEL-28 melanoma and in the assay with OVCAR-4 ovarian was over 100 µM throughout.
As for `CC1(O)CCC2(C)C(=O)C1(C)CCC21OCCO1` (centres undefined), the TGI in the assay with MOLT-4 leukemia, in the assay on NCI-H522 lung, in the assay with RXF 393 renal, with 786-0 renal and in the assay with SK-MEL-28 melanoma was over 100 µM in each case.
With `NC(=O)c1csc(C2CCC(CO)O2)n1` (centres undefined), the TGI with MOLT-4 leukemia, in the assay on HOP-62 NSCLC, in the assay with NCI-H522 lung, in the assay with HCT-116 colon, with CAKI-1 renal and in the assay with 786-0 renal was over 100 µM each time. The TGI in the assay with SK-MEL-28 melanoma and with OVCAR-4 ovarian was over 100 µM throughout.
For the compound `ClCc1ccc(C2OCCO2)cc1`, the TGI with MOLT-4 leukemia was 45.6 µM; in the assay with HOP-62 NSCLC it was 41.2 µM; in the assay on NCI-H522 lung it was 28.6 µM; in the assay on HCT-116 colon, over 52.1 µM; with RXF 393 renal it was over 62 µM; in the assay with 786-0 renal, 54.4 µM. In addition, the TGI with SK-MEL-28 melanoma is over 58.6 µM.

The values are drawn from PubChem BioAssay (NCI).
